Test results reported in ChEMBL document CHEMBL3885881, “DrugMatrix”.

Species: Rattus norvegicus
Assay: DrugMatrix - Regimen: Daily Repeat
Type: toxicity, organism-based, Sprague-Dawley
Set-up: regimen Daily Repeat, gender Male, age 6-8 weeks
Conditions: in vivo, po, 3 mg/kg, route oral GAVAGE, dose level Low, vehicle 100 % WATER; for ABSOLUTE BASOPHIL / ABSOLUTE EOSINOPHIL / ABSOLUTE LYMPHOCYTE / ABSOLUTE MONOCYTE / ABSOLUTE SEGMENTED NEUTROPHIL / BASOPHIL / EOSINOPHIL / ERYTHROCYTE COUNT / HEMATOCRIT / HEMOGLOBIN / LEUKOCYTE COUNT / LYMPHOCYTE / MEAN CORPUSCULAR HEMOGLOBIN / MEAN CORPUSCULAR HEMOGLOBIN CONCENTRATION / MONOCYTE / NEUTROPHIL / NUCLEATED RED BLOOD CELLS / PLATELET COUNT: tissue Blood; for ALANINE AMINOTRANSFERASE / ALBUMIN / ALKALINE PHOSPHATASE / ASPARTATE AMINOTRANSFERASE / BLOOD UREA NITROGEN / CARBON DIOXIDE / CHLORIDE / CHOLESTEROL / CREATINE PHOSPHOKINASE / CREATININE / GLUCOSE / LACTATE DEHYDROGENASE / LIPASE / PHOSPHORUS / SODIUM / TOTAL BILIRUBIN / TOTAL PROTEIN / URIC ACID: tissue Plasma

In the case of COc1cc2nc(N3CCN(C(=O)C4CCCO4)CC3)nc(N)c2cc1OC (configuration not stated) [TERAZOSIN], the “ABSOLUTE BASOPHIL” value (72 h, time 3 day) is reported as 0 CELLS/uL, the “ABSOLUTE EOSINOPHIL” value (72 h, time 3 day) is reported as 53.33 CELLS/uL and the “ABSOLUTE LYMPHOCYTE” value (72 h, time 3 day) is reported as 7633 CELLS/uL. For the same molecule, the “ABSOLUTE MONOCYTE” value (72 h, time 3 day) was 36.67 CELLS/uL, the “ABSOLUTE SEGMENTED NEUTROPHIL” value (72 h, time 3 day) was 977 CELLS/uL and the BASOPHIL (72 h, time 3 day) was 0%. For the same molecule, the EOSINOPHIL (72 h, time 3 day) was 0.67%, the “ERYTHROCYTE COUNT” value (72 h, time 3 day) was 4.99 x10E6/uL and the HEMATOCRIT (72 h, time 3 day) was 32.2%. The HEMOGLOBIN (72 h, time 3 day) was 12.87 G/DL, the “LEUKOCYTE COUNT” value (72 h, time 3 day) was 8.7 x10E3/uL and the LYMPHOCYTE (72 h, time 3 day) was 88%. The “MEAN CORPUSCULAR HEMOGLOBIN” value (72 h, time 3 day) was 25.87 pg, the “MEAN CORPUSCULAR HEMOGLOBIN CONCENTRATION” value (72 h, time 3 day) was 40 G/DL and the MONOCYTE (72 h, time 3 day) was 0.33%. The NEUTROPHIL (72 h, time 3 day) was 11%, the “NUCLEATED RED BLOOD CELLS” value (72 h, time 3 day) was 0 /100WBC and the “PLATELET COUNT” value (72 h, time 3 day) was 1053.33 x10E3/uL. For the same molecule, the “ALANINE AMINOTRANSFERASE” value (72 h, time 3 day) was 63.67 u/L, the ALBUMIN (72 h, time 3 day) was 4.27 G/DL and the “ALKALINE PHOSPHATASE” value (72 h, time 3 day) was 367.67 u/L. For the same molecule, the “ASPARTATE AMINOTRANSFERASE” value (72 h, time 3 day) was 102.33 u/L, the “BLOOD UREA NITROGEN” value (72 h, time 3 day) was 16.67 mg/dL and the “CARBON DIOXIDE” value (72 h, time 3 day) was 32.67 mmol/L. The CHLORIDE (72 h, time 3 day) was 103.33 MEQ/L, the CHOLESTEROL (72 h, time 3 day) was 74 mg/dL and the “CREATINE PHOSPHOKINASE” value (72 h, time 3 day) was 321.67 u/L. For the same molecule, the CREATININE (72 h, time 3 day) was 0.24 mg/dL, the GLUCOSE (72 h, time 3 day) was 155 mg/dL and the “LACTATE DEHYDROGENASE” value (72 h, time 3 day) was 197.67 u/L. It also gave an LIPASE (72 h, time 3 day) of 8.33 u/L, a PHOSPHORUS (72 h, time 3 day) of 12.7 mg/dL and an SODIUM (72 h, time 3 day) of 145.9 MEQ/L. For the same molecule, the “TOTAL BILIRUBIN” value (72 h, time 3 day) was 0.13 mg/dL, the “TOTAL PROTEIN” value (72 h, time 3 day) was 5.97 G/DL and the “URIC ACID” value (72 h, time 3 day) was 1.27 mg/dL. For the same molecule, the “ABSOLUTE BASOPHIL” value (120 h, time 5 day) was 0 CELLS/uL, the “ABSOLUTE EOSINOPHIL” value (120 h, time 5 day) was 0 CELLS/uL and the “ABSOLUTE LYMPHOCYTE” value (120 h, time 5 day) was 9705.67 CELLS/uL. The “ABSOLUTE MONOCYTE” value (120 h, time 5 day) was 145.67 CELLS/uL, the “ABSOLUTE SEGMENTED NEUTROPHIL” value (120 h, time 5 day) was 882 CELLS/uL and the BASOPHIL (120 h, time 5 day) was 0%. The EOSINOPHIL (120 h, time 5 day) was 0%, the “ERYTHROCYTE COUNT” value (120 h, time 5 day) was 5.4 x10E6/uL and the HEMATOCRIT (120 h, time 5 day) was 35.9%. For the same molecule, the HEMOGLOBIN (120 h, time 5 day) was 13.87 G/DL, the “LEUKOCYTE COUNT” value (120 h, time 5 day) was 10.73 x10E3/uL and the LYMPHOCYTE (120 h, time 5 day) was 90.33%. For the same molecule, the “MEAN CORPUSCULAR HEMOGLOBIN” value (120 h, time 5 day) was 25.7 pg, the “MEAN CORPUSCULAR HEMOGLOBIN CONCENTRATION” value (120 h, time 5 day) was 38.67 G/DL and the MONOCYTE (120 h, time 5 day) was 1.33%. The NEUTROPHIL (120 h, time 5 day) was 8.33%, the “NUCLEATED RED BLOOD CELLS” value (120 h, time 5 day) was 0 /100WBC and the “PLATELET COUNT” value (120 h, time 5 day) was 1076.33 x10E3/uL. The “ALANINE AMINOTRANSFERASE” value (120 h, time 5 day) was 56.67 u/L, the ALBUMIN (120 h, time 5 day) was 4.27 G/DL and the “ALKALINE PHOSPHATASE” value (120 h, time 5 day) was 361.33 u/L. The “ASPARTATE AMINOTRANSFERASE” value (120 h, time 5 day) was 85.33 u/L, the “BLOOD UREA NITROGEN” value (120 h, time 5 day) was 20.67 mg/dL and the “CARBON DIOXIDE” value (120 h, time 5 day) was 30 mmol/L. For the same molecule, the CHLORIDE (120 h, time 5 day) was 102.67 MEQ/L, the CHOLESTEROL (120 h, time 5 day) was 75.33 mg/dL and the “CREATINE PHOSPHOKINASE” value (120 h, time 5 day) was 197.33 u/L. For the same molecule, the CREATININE (120 h, time 5 day) was 0.24 mg/dL, the GLUCOSE (120 h, time 5 day) was 172 mg/dL and the “LACTATE DEHYDROGENASE” value (120 h, time 5 day) was 141.67 u/L. For the same molecule, the LIPASE (120 h, time 5 day) was 11.33 u/L, the PHOSPHORUS (120 h, time 5 day) was 13.7 mg/dL and the SODIUM (120 h, time 5 day) was 146.17 MEQ/L. The “TOTAL BILIRUBIN” value (120 h, time 5 day) was 0.2 mg/dL, the “TOTAL PROTEIN” value (120 h, time 5 day) was 5.9 G/DL and the “URIC ACID” value (120 h, time 5 day) was 1.7 mg/dL.
